Columns and labels:
ER-α in MCF-7 cells = target: T1, ER-α in MCF-7 cells (Homo sapiens, UniProt P03372); experiment: Breast cancer cell ER-α in cell western assay (SP1); type: cell-based; parameters: endogenous in cells; host or cells: MCF-7; conditions: 4 or 24 hr post compound addition; for Emax: MCF7, SP1 antibody, read-out: ER-α In Cell Western Assay (SP1) Max Response; for DC50: SP1 antibody, read-out: ER-α In Cell Western Assay (SP1) IC50
T1 sequence (P03372 1-595): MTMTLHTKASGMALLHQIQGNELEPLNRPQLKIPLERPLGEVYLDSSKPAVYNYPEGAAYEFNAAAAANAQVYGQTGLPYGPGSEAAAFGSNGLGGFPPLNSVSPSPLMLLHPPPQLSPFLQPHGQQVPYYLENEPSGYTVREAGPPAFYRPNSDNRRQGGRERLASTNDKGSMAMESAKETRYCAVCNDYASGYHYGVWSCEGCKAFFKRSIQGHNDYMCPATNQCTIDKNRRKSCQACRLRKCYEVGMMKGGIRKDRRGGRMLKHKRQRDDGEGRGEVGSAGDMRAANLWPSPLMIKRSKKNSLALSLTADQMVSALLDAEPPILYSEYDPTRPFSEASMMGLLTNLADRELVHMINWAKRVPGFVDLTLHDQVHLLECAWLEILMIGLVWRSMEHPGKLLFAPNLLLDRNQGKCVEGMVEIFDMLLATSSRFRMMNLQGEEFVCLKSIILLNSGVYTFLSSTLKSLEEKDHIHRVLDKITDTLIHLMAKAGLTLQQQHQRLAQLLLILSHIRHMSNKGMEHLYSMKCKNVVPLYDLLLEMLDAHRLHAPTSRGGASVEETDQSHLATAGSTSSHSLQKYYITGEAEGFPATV
Summary of the method: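 ER-α protein levels were measured in MCF-7 cells after 4 or 24 hr compound exposure (final 0.3–0.000003 μM) in RPMI containing 10% charcoal-stripped FBS.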

MCF-7 cells = experiment: Breast cancer cell viability assay (CellTiter-Glo, 5 days); type: cell-based; conditions: 5 days' compound exposure; for IC50: Homo sapiens, MCF7, 120 h
Summary of the method: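 MCF-7 cells, 320 per well in RPMI with 10% FBS and 20 mM HEPES, adhered overnight, then exposed 5 days to an eleven-point semilog dilution (final 0.3-0.000003 μM). CellTiter-Glo luminescence read; % viability = (sample − cell-free background)/(untreated − background) × 100.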

| SMILES | Emax (ER-α in MCF-7 cells) [%] | DC50 (ER-α in MCF-7 cells) [nM] | MCF7 Viability Assay Max Response (MCF-7 cells) | IC50 (MCF-7 cells) [nM] |
| --- | --- | --- | --- | --- |
| CC/C(=C(/c1ccc(/C=C/C(=O)O)cc1)c1ccc2nonc2c1)c1ccccc1 [Compound 137, (E)-3-(4-((E)-1-(Benzo[c][1,2,5]oxadiazol-5-yl)-2-phenylbut-1-en-1-yl)phenyl)acrylic acid] | ≥ 40 | > 100 | + (+ = a single % value < 40%) | > 100 |
| CC/C(=C(/c1ccc(/C=C/C(=O)O)cc1)c1ccn2nncc2c1)c1ccccc1 [Compound 138, (E)-3-(4-((E)-1-([1,2,3]Triazolo[1,5-a]pyridin-5-yl)-2-phenylbut-1-en-1-yl)phenyl)acrylic acid] | ≥ 40 | > 100 | + (+ = a single % value < 40%) | > 100 |
| CC/C(=C(/c1ccc(/C=C/C(=O)O)cc1)c1ccc2scnc2c1)c1ccccc1 [Compound 141, (E)-3-(4-((E)-1-(Benzo[d]thiazol-5-yl)-2-phenylbut-1-en-1-yl)phenyl)acrylic acid] | ≥ 40 | ≤ 100 | ++ (++ = a single % value ≧ 40%) | ≤ 100 |
| CC/C(=C(/c1ccc(/C=C/C(=O)O)cc1)c1cc2ccccc2s1)c1ccccc1 [Compound 142, (E)-3-(4-((E)-1-(Benzo[b]thiophen-2-yl)-2-phenylbut-1-en-1-yl)phenyl)acrylic acid] | ≥ 40 | ≤ 100 | ++ (++ = a single % value ≧ 40%) | ≤ 100 |
| CC/C(=C(/c1ccc(/C=C/C(=O)O)cc1)c1ccc2c(cnn2-c2ccccc2)c1)c1ccccc1 [Compound 143, (E)-3-(4-((E)-2-Phenyl-1-(1-phenyl-1H-indazol-5-yl)but-1-en-1-yl)phenyl)acrylic acid] | ≥ 40 | > 100 | ++ (++ = a single % value ≧ 40%) | > 100 |
| CC/C(=C(/c1ccc(/C=C/C(=O)O)cc1)c1ccc2nsnc2c1)c1ccccc1 [Compound 144, (E)-3-(4-((E)-1-(Benzo[c][1,2,5]thiadiazol-5-yl)-2-phenylbut-1-en-1-yl)phenyl)acrylic acid] | ≥ 40 | > 100 | ++ (++ = a single % value ≧ 40%) | > 100 |
| CC/C(=C(/c1ccc(/C=C/C(=O)O)cc1)c1ccc2c(cnn2-c2cccnc2)c1)c1ccccc1 [Compound 145, (E)-3-(4-((E)-2-Phenyl-1-(1-(pyridin-3-yl)-1H-indazol-5-yl)but-1-en-1-yl)phenyl)acrylic acid] | ≥ 40 | > 100 | ++ (++ = a single % value ≧ 40%) | > 100 |
| CC/C(=C(/c1ccc(/C=C/C(=O)O)cc1)c1ccc2ocnc2c1)c1ccccc1 [Compound 146] | ≥ 40 | > 100 | ++ (++ = a single % value ≧ 40%) | > 100 |
| CC/C(=C(/c1ccc(/C=C/C(=O)O)cc1)c1ccc2[nH]ncc2c1)c1ccccc1Oc1ccccc1 [Compound 147, (E)-3-(4-((E)-1-(1H-Indazol-5-yl)-2-(2-phenoxyphenyl)but-1-en-1-yl)phenyl)acrylic acid] | ≥ 40 | ≤ 100 | ++ (++ = a single % value ≧ 40%) | ≤ 100 |
| CC/C(=C(/c1ccc(/C=C/C(=O)O)cc1)c1cnn2ccccc12)c1ccccc1 [Compound 148, (E)-3-(4-((E)-2-Phenyl-1-(pyrazolo[1,5-a]pyridin-3-yl)but-1-en-1-yl)phenyl)acrylic acid] | ≥ 40 | > 100 | ++ (++ = a single % value ≧ 40%) | > 100 |
| CC/C(=C(/c1ccc(/C=C/C(=O)O)cc1)c1ncc2[nH]ncc2n1)c1ccccc1 [Compound 149, (E)-3-(4-((E)-2-Phenyl-1-(1H-pyrazolo[4,3-d]pyrimidin-5-yl)but-1-en-1-yl)phenyl)acrylic acid] | ≥ 40 | > 100 | + (+ = a single % value < 40%) | > 100 |
| CC/C(=C(/c1ccc(/C=C/C(=O)O)cc1)c1ccc(O)nc1)c1ccccc1 [Compound 152, (E)-3-(4-((E)-1-(6-Hydroxypyridin-3-yl)-2-phenylbut-1-en-1-yl)phenyl)acrylic acid] | ≥ 40 | – | + (+ = a single % value < 40%) | > 100 |
| Cc1cscc1/C(=C(\c1ccc(/C=C/C(=O)O)cc1)c1ccc2[nH]ncc2c1)C(C)C [Compound 154, (E)-3-(4-((E)-1-(1H-Indazol-5-yl)-3-methyl-2-(4-methylthiophen-3-yl)but-1-en-1-yl)phenyl)acrylic acid] | ≥ 40 | ≤ 100 | ++ (++ = a single % value ≧ 40%) | ≤ 100 |
| CC/C(=C(/c1ccc(/C=C/C(=O)O)cc1)c1ccc2sncc2c1)c1ccccc1 [Compound 156, (E)-3-(4-((E)-1-(Benzo[d]isothiazol-5-yl)-2-phenylbut-1-en-1-yl)phenyl)acrylic acid] | ≥ 40 | > 100 | ++ (++ = a single % value ≧ 40%) | > 100 |
| CC/C(=C(/c1ccc(/C=C/C(=O)O)cc1)c1ccc2sc(C)nc2c1)c1ccccc1 [Compound 159, (E)-3-(4-((E)-1-(2-Methylbenzo[d]thiazol-5-yl)-2-phenylbut-1-en-1-yl)phenyl)acrylic acid] | ≥ 40 | > 100 | ++ (++ = a single % value ≧ 40%) | > 100 |
| CC/C(=C(/c1ccc(/C=C/C(=O)O)cc1)c1ccc2[nH]ncc2c1F)c1ccc(Oc2ncccn2)cc1 [Compound 160, (E)-3-(4-((E)-1-(4-Fluoro-1H-indazol-5-yl)-2-(4-(pyrimidin-2-yloxy)phenyl)but-1-en-1-yl)phenyl)acrylic acid] | ≥ 40 | ≤ 100 | ++ (++ = a single % value ≧ 40%) | ≤ 100 |
| CC/C(=C(/c1ccc(/C=C/C(=O)O)cc1)c1ccc2[nH]ncc2c1F)c1ccc(Oc2cnccn2)cc1 [Compound 161, (E)-3-(4-((E)-1-(4-Fluoro-1H-indazol-5-yl)-2-(4-(pyrazin-2-yloxy)phenyl)but-1-en-1-yl)phenyl)acrylic acid] | ≥ 40 | ≤ 100 | ++ (++ = a single % value ≧ 40%) | ≤ 100 |
| CS(=O)(=O)c1ccc(Oc2ccc(/C(=C(\c3ccc(/C=C/C(=O)O)cc3)c3ccc4[nH]ncc4c3)C3CCC3)cc2)nc1 [Compound 162, (E)-3-(4-((E)-2-Cyclobutyl-1-(1H-indazol-5-yl)-2-(4-((5-(methylsulfonyl)pyridin-2-yl)oxy)phenyl)vinyl)phenyl)acrylic acid] | ≥ 40 | ≤ 100 | ++ (++ = a single % value ≧ 40%) | ≤ 100 |
| CC/C(=C(/c1ccc(/C=C/C(=O)O)cc1)c1coc2c(OC)cccc12)c1ccccc1 [Compound 163, (E)-3-(4-((E)-1-(7-Methoxybenzofuran-3-yl)-2-phenylbut-1-en-1-yl)phenyl)acrylic acid] | ≥ 40 | ≤ 100 | ++ (++ = a single % value ≧ 40%) | ≤ 100 |
| CC/C(=C(/c1ccc(/C=C/C(=O)O)cc1)c1coc2c(OC)cccc12)c1ccc(F)cc1Cl [Compound 164, (E)-3-(4-((E)-2-(2-Chloro-4-fluorophenyl)-1-(7-methoxybenzofuran-3-yl)but-1-en-1-yl)phenyl)acrylic acid] | ≥ 40 | ≤ 100 | ++ (++ = a single % value ≧ 40%) | ≤ 100 |
| CC/C(=C(/c1ccc(/C=C/C(=O)O)cc1)c1ccc2ccncc2c1)c1ccccc1 [Compound 168, (E)-3-(4-((E)-1-(Isoquinolin-7-yl)-2-phenylbut-1-en-1-yl)phenyl)acrylic acid] | ≥ 40 | > 100 | ++ (++ = a single % value ≧ 40%) | > 100 |
| CC/C(=C(/c1ccc(/C=C/C(=O)O)cc1)c1cc2ccccc2o1)c1ccc(F)cc1Cl [Compound 169, (E)-3-(4-((E)-1-(Benzofuran-2-yl)-2-(2-chloro-4-fluorophenyl)but-1-en-1-yl)phenyl)acrylic acid] | ≥ 40 | ≤ 100 | ++ (++ = a single % value ≧ 40%) | ≤ 100 |

Reference: US9399646B2 (Genentech, Inc., priority 2010, dated 2016)
